One experiment deals with artificial NCM pathway. Nature of the experiment: Effect of inhibitors of natural synthesis pathways on the NCM in-vitro reaction system. Format: biochemical. How it is done: It can be seen that the BauA has the best effect (FIG. 4A).
Natural PDH-ACC pathways are strictly regulated by many factors, such as high levels of intracellular ATP severely reducing the activity of PDH. When ADP/ATP=1, the activity of PDH is only 10% of that when ADP/ATP=20 (Hansford R G et al., 1976). Acetyl-CoA is also an inhibitor of PDH. When acetyl-CoA reaches 2 mM, the activity of PDH decreases by 70%. Long-chain fatty acyl-CoA, such as palmitoyl-CoA, is an inhibitor of ACC. […] palmitoyl-CoA can cause an 80% decrease in ACC activity. In the above NCM in-vitro reaction system, ATP and ADP (ATP+ADP=3.75 mM, ADP/ATP was +00, 10, 1, and 0.1, respectively) (FIG. 6A), acetyl-CoA (0, 0.5, 1, and 2 mM) (FIG. 6B), and palmitoyl-CoA ([…]) (FIG. 6C) were added, respectively.

Another experiment deals with PDH. Conditions: cited from earlier work.
In experiment [1] the test system is E. coli MG1655 (DE3), pCDF-ACC (strain N). Format: cell-based. The conditions noted are these: ACC overexpressed strain; MOPS medium with 200 mM succinic acid, 10 mM triacetic acid lactone, 300 mM NaCl or 480 mM sucrose. Here is the method:
(§1) Seed culture: Monoclones of the MG1655 (DE3), pCDF-bauA-mcrC (strain L), monoclones of the MG1655 (DE3), pCDF-duet (strain M) and monoclones of the MG1655 (DE3), pCDF-ACC (strain N) were selected respectively to be inoculated into a 15 mL test tube containing 5 mL of an MOPS medium, the medium containing spectinomycin (a final concentration of 50 μg/mL). Culture was carried out at 220 r and 37° C. until the OD550 is around 1.5 to 1.8 to be used as a seed solution.
(§2) Medium used for tolerance testing: IPTG (a final concentration of 0.1 mM) and spectinomycin (a final concentration of 50 μg/mL) were added into an MOPS medium (containing […] glucose); then, inhibitors were added, and the selected inhibitors and final concentrations thereof were formic acid (100 mM), acetic acid (50 mM), caproic acid (10 mM), lactic acid (500 mM), succinic acid (200 mM), glucose (100 μg/L), sucrose (480 mM), octanoic acid (10 mM), citric acid (200 mM), vanillic acid (3 μg/L), and triacetic acid lactone (TAL, 1.25 μg/L).
(§3) The seed solution was inoculated at a ratio of initial OD550=0.1 into a medium for tolerance test. After inoculation was completed, shaking for even mixing was carried out. 200 μL of the same was pipetted to a 96-well plate. By using a continuous kinetic assay method, OD550 was determined every 10 minutes with a microplate reader (Biotek), to determine the growth curve of the strain. The specific growth rate […] can be obtained by calculation of the exponential growth phase OD550T, cultivation time T, and initial OD550O.

Experiment [2] has as its system E. coli MG1655 (DE3), pCDF-bauA-mcrC (strain L). Format: cell-based. The conditions noted are these: for biomass (OD550): NCM pathway overexpressed strain, MOPS medium with 200 mM succinic acid, 10 mM triacetic acid lactone, 300 mM NaCl or 480 mM sucrose; for increase of biomass of NCM strain compared to the ACC overexpressed strain / increase of biomass of NCM strain compared to the reference strain: same stressor concentrations as OD550 values. Here is the method: as §1, §2, §3

For experiment [3], the system named is E. coli MG1655 (DE3), pCDF-duet (strain M). Nature of the experiment: Tolerance test, growth (OD550) of reference strain. It is filed as cell-based. Conditions: MOPS medium with 200 mM succinic acid, 10 mM triacetic acid lactone, 300 mM NaCl or 480 mM sucrose. Here is the method: as §1, §2, §3

Like-named read-outs stand apart in the source and are kept apart here.

The values that follow come from patent US20250066826A1, “ARTIFICIAL SYNTHESIS METHOD FOR MALONYL-COENZYME A (COA) AND USE THEREOF” (SHANGHAI JIAO TONG UNIVERSITY, priority 2023, published 2025).

Take `CC(=O)SCCNC(=O)CCNC(=O)[C@H](O)C(C)(C)COP(=O)(O)OP(=O)(O)OC[C@H]1O[C@@H](n2cnc3c(N)ncnc32)[C@H](O)[C@@H]1OP(=O)(O)O` [acetyl-CoA]: the “inhibitory effect on the artificial NCM pathway” value (“inhibitory effect” below) in the experiment with artificial NCM pathway (acetyl-CoA 0, 0.5, 1 and 2 mM) was “no inhibitory effect”. For the same compound, the “decrease in PDH activity” value in the experiment with PDH (2 mM acetyl-CoA) is recorded as 70%.
Turning to `[Cl-].[Na+]` [NaCl], the entries for the “biomass (OD550)” value in experiment [1], in experiment [2] and in experiment [3] were 0.24, 0.76 and 0.59, respectively. Also, the “increase of biomass of NCM strain compared to the ACC overexpressed strain” value (“increase … to the ACC overexpressed strain” for short) in experiment [2] was found to be 214%. Besides, the “increase of biomass of NCM strain compared to the reference strain” value (shortened to “increase of biomass … to the reference strain”) in experiment [2] came to 29%.
`O=C(O)CCC(=O)O` [succinic acid]: the “biomass (OD550)” value in experiment [1] was found to be 0.20; in experiment [2] it was 0.60; in experiment [3] it was 0.30. For the same compound, in experiment [2], the “increase of biomass … to the reference strain” value was 100%.
Consider `CCCCCCCCCCCCCCCC(=O)SCCNC(=O)CCNC(=O)[C@H](O)C(C)(C)COP(=O)(O)OP(=O)(O)OC[C@H]1O[C@@H](n2cnc3c(N)ncnc32)[C@H](O)[C@@H]1OP(=O)(O)O` [palmitoyl-CoA], for which the “inhibitory effect” value with artificial NCM pathway (palmitoyl-CoA 0, 0.24, 0.48, 0.96, 2.4 and 24 M) is recorded as “no inhibitory effect”.
Regarding `Cc1cc(O)cc(=O)o1` [triacetic acid lactone], the “biomass (OD550)” value in experiment [1] came to 0.29. In experiment [2], the “biomass (OD550)” value came to 0.81, the “increase … to the ACC overexpressed strain” value turned out to be 180% and the “increase of biomass … to the reference strain” value stood at 30%. The “biomass (OD550)” value in experiment [3] is 0.62.
Regarding `Nc1ncnc2c1ncn2[C@@H]1O[C@H](COP(=O)(O)OP(=O)(O)OP(=O)(O)O)[C@@H](O)[C@H]1O` [ATP], the “inhibitory effect” value in the experiment on artificial NCM pathway (ATP+ADP=3.75 mM, ADP/ATP +00, 10, 1 and 0.1) is on record as “no inhibitory effect”. Besides, in the experiment on PDH (ADP/ATP equal to 1), the “decrease in PDH activity” value is reported as 90%. In addition, the “activity of PDH relative to that when ADP/ATP=20” value with PDH (ADP/ATP=1) is 10%.
As for `OC[C@H]1O[C@@](CO)(O[C@H]2O[C@H](CO)[C@@H](O)[C@H](O)[C@H]2O)[C@@H](O)[C@@H]1O` [sucrose], the “biomass (OD550)” value in experiment [1] was found to be 0.23; in experiment [2], 0.96; in experiment [3], 0.77. Also, in experiment [2], the “increase … to the ACC overexpressed strain” value was 320%. Moreover, the “increase of biomass … to the reference strain” value in experiment [2] is reported as 26%.
